Measurements reported in US5714594A, “cDNA cloning and expression of human liver estrogen sulfotransferase” (Mayo Foundation for Medical Education and Research, priority 1994, dated 1998).

How the values were obtained:
[1] = target: T1, human liver DHEA ST (Homo sapiens, UniProt Q06520); conditions: 75 mM NaCl; DHEA as substrate
T1 sequence (Q06520 1-285): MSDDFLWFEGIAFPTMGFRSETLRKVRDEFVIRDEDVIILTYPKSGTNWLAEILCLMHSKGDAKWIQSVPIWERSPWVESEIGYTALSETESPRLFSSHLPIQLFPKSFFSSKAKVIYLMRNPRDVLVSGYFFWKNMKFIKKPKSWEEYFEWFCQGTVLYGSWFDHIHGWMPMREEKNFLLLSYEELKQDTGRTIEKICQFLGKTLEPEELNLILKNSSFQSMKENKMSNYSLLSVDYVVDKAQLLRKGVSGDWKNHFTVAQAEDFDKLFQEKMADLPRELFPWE
Description: (§1) Biochemical characterization of human EST were carried out using aliquots of HSS from COS-1 cells transfected with human liver EST cDNA. Parallel experiments were performed with human liver DHEA ST cDNA (D. M. Otterness et at., Mol. Pharmacol., 41, 865-872 (1992)) that had also been transiently expressed in COS-1 cells.
(§2) E. Effect of NaCl concentration on EST activity.

[2] = target: T2, human liver EST (Homo sapiens, UniProt P49888); conditions: 150 mM NaCl; estrone as substrate; expressed in COS-1 cells
T2 sequence (P49888 1-294): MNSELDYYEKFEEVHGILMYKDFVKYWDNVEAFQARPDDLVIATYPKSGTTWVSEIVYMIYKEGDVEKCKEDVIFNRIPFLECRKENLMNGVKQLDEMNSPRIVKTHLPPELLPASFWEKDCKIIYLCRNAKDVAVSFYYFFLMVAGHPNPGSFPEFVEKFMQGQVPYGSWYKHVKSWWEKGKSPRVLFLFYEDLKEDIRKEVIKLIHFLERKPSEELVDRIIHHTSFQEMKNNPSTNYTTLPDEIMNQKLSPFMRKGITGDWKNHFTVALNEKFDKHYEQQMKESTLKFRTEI
Description: as §1, §2

[3] = target: T1, human liver DHEA ST; assay: DCNP inhibition of DHEA ST activity; type: biochemical; set-up: expressed in transfected cells; host or cells: COS-1 cells; high-speed supernatant; conditions: DHEA as substrate; expressed in COS-1 cells; read-out: mean DCNP concentration at which DHEA ST activity was 50% inhibited
Description: (§3) D. DCNP inhibition of EST activity. […] EST activity (using its preferred substrate, estrone) and DHEA ST activity (using its preferred substrate, DHEA) were 50% inhibited at very similar mean DCNP concentrations, 28±2.9 and 40±2.3 μM, respectively (FIG. 4B).

[4] = target: T2, human liver EST; assay: DCNP inhibition of EST activity; type: biochemical; set-up: expressed in transfected cells; host or cells: COS-1 cells, vector p91023(B); 100,000×g high-speed supernatant; conditions: estrone as substrate; expressed in COS-1 cells; read-out: mean DCNP concentration at which EST activity was 50% inhibited
Description: as §3

[5] = target: T2, human liver EST; assay: ST activities in high-speed supernatants of COS-1 cells transfected with human liver EST cDNA; type: biochemical; set-up: expressed in transfected cells; host or cells: COS-1 cells, vector p91023(B); 100,000×g high-speed supernatant; conditions: substance is the sulfate acceptor substrate; transfected COS-1 cell preparation; 1 unit = 1 nmol sulfated product per hour at 37° C.
Description: B. Expression in COS-1 cells. COS-1 cells were transfected with an EST cDNA expression construct in the eukaryotic expression vector p91023(B) as well as with vector alone using the DEAE-dextran method (H. Luthman et al., Nucleic Acids Res., 11, 1295-1308 (1983)). After harvesting, cell pellets were washed with 5 ml of phosphate buffered saline (PBS) and were homogenized for 30 seconds in 2 ml of 5 mM potassium phosphate buffer, pH 6.5. The homogenates were centrifuged at 15,000×g for 15 minutes at 4° C., and supernatants were centrifuged at 100,000×g for 1 hour at 4° C. Five μl aliquots of the 100,000×g "high-speed supernatants" (HSS) were assayed for ST enzymatic activities.
A. Sulfotransferase (ST) activities. The abilities of EST and DHEA ST to catalyze sulfation of various substrates were compared.
One unit of enzyme activity represented the formation of 1 nmol of sulfated product per hour of incubation at 37° C. All assays were performed in triplicate, and values reported are averages of those three determinations. Protein concentrations were measured by the method of Bradford (Anal. Biochem., 72, 248-254 (1976)) with bovine serum albumin as a standard.

[6] = tested on: human EST; assay: Optimization of EST assay conditions and preferred substrate; type: biochemical; conditions: compared with estradiol-17β, ethinyl estradiol or DHEA
Excerpt: 1. Identification of the preferred substrate for human EST.
2. Optimization of EST assay conditions. Estrone was used as the substrate to determine optimal assay conditions and, subsequently, to characterize the properties of human EST.

[7] = substrate: C[C@]12CC[C@@H]3c4ccc(O)cc4CC[C@H]3[C@@H]1CCC2=O; assay: Substrate kinetics (apparent Km) of ST activity, EST; type: biochemical, human; conditions: other: substance is the substrate; EST cDNA expressed in COS-1 cells
Description: (§4) B. Kinetics of ST activity. Substrate kinetic studies designed to estimate apparent Km values were performed. Since human liver EST and DHEA ST can both catalyze the sulfation of steroids, these studies presented an opportunity to determine apparent Km values of the two enzymes with estrone and DHEA as substrates. Both enzyme preparations were tested with a range of estrone and DHEA concentrations. […] Apparent Km values were calculated by the method of Wilkinson (Biochem. J., 80, 324-332 (1961)) with a computer program written by Cleland (Nature, 198, 463-465 (1963)).

[8] = substrate: C[C@]12CC[C@H](O)CC1=CC[C@@H]1[C@@H]2CC[C@]2(C)C(=O)CC[C@@H]12; assay: as above; type: biochemical, human; conditions: other: substance is the substrate; EST cDNA expressed in COS-1 cells
Description: as §4

[9] = target: T2, human liver EST; assay: Thermal inactivation of ST activity, EST; type: physicochemical; set-up: expressed in transfected cells; host or cells: COS-1 cells, vector p91023(B); 100,000×g high-speed supernatant; conditions: preincubated 15 minutes; estrone as substrate; HSS from COS-1 cells
Description: (§5) C. Thermal inactivation of ST activity. […] The temperatures at which 50% inactivation of EST (using its preferred substrate, estrone) and DHEA ST (using its preferred substrate, DHEA) activities occurred were 38.2±0.12 (mean±SEM) and 41.1±0.10° C., respectively (FIG. 4A). For the thermal inactivation experiment, HSS from COS-1 cells transfected with EST cDNA or DHEA ST cDNA was diluted 1:2 (v/v) with 5 mM potassium phosphate buffer, pH 6.5, preincubated at various temperatures for 15 minutes and was then placed on ice. An aliquot of the same preparation was kept on ice as a control. Each aliquot was then diluted further for assay of the ST activity being measured. Values for controls were determined at each temperature studied.

[10] = substrate: C[C@]12CC[C@@H]3c4ccc(O)cc4CC[C@H]3[C@@H]1CCC2=O; assay: Substrate kinetics (apparent Km) of ST activity, DHEA ST; type: biochemical, human; conditions: other: substance is the substrate; DHEA ST cDNA expressed in COS-1 cells
Description: as §4

[11] = substrate: C[C@]12CC[C@H](O)CC1=CC[C@@H]1[C@@H]2CC[C@]2(C)C(=O)CC[C@@H]12; assay: as above; type: biochemical, human; conditions: other: substance is the substrate; DHEA ST cDNA expressed in COS-1 cells
Description: as §4

[12] = target: T1, human liver DHEA ST; assay: Thermal inactivation of ST activity, DHEA ST; type: physicochemical; set-up: expressed in transfected cells; host or cells: COS-1 cells; high-speed supernatant; conditions: preincubated 15 minutes; DHEA as substrate; HSS from COS-1 cells
Description: as §5

## [Cl-].[Na+] [NaCl]
[1]
  peak activation of human liver DHEA ST: 62%
[2]
  increase of human liver EST activity: 86%

## O=[N+]([O-])c1cc(Cl)c(O)c(Cl)c1 [DCNP, 2,6-dichloro-4-nitrophenol]
[3]
  IC50: 40 ± 2.3 µM
[4]
  IC50: 28 ± 2.9 µM

## O=[N+]([O-])c1ccc(O)cc1 [4-nitrophenol]
[5]
  sulfation catalyzed by the protein encoded by the human liver EST cDNA: 5 units/mg protein

## C[C@]12CC[C@@H]3c4ccc(O)cc4CC[C@H]3[C@@H]1CCC2=O [estrone]
[6]
  ST enzyme activity as sulfate acceptor substrate, compared with other substrates: greater ST enzyme activity
[5]
  sulfation catalyzed by the protein encoded by the human liver EST cDNA: 9 units/mg protein

## NCCc1ccc(O)c(O)c1 [dopamine]
[5]
  sulfation catalyzed by the protein encoded by the human liver EST cDNA: not

## C[C@]12CC[C@H](O)CC1=CC[C@@H]1[C@@H]2CC[C@]2(C)C(=O)CC[C@@H]12 [DHEA, dehydroepiandrosterone]
[5]
  sulfation catalyzed by the protein encoded by the human liver EST cDNA: 2.3 units/mg protein

B1: human liver EST (Homo sapiens) (protein)
chain: T2 sequence (P49888 1-294)
notes: expressed in transfected cells; host or cells: COS-1 cells, vector p91023(B); 100,000×g high-speed supernatant
[7]
  Km: 0.17 µM
[8]
  Km: 0.85 µM
[9]
  temperature at which 50% inactivation of EST activity occurred (mean±SEM): 38.2±0.12 °C

B2: human liver DHEA ST (Homo sapiens) (protein)
chain: T1 sequence (Q06520 1-285)
notes: expressed in transfected cells; host or cells: COS-1 cells; high-speed supernatant
[10]
  Km: 3.1 µM
[11]
  Km: 2.6 µM
[12]
  temperature at which 50% inactivation of DHEA ST activity occurred (mean±SEM): 41.1±0.10 °C
